Literature values as cited in US9961901B2, “Mectin and milbemycin nanoparticle formulations” (priority 2013, dated 2018).
Where two headings read alike, the source gives them in different places.

Legend:
[1] = 20° C.
[2] = not given; remark: listed apart in the source

Compound: CC[C@H](C)[C@H]1O[C@]2(C=C[C@@H]1C)C[C@@H]1C[C@@H](C/C=C(\C)[C@@H](O[C@H]3C[C@H](OC)[C@@H](O[C@H]4C[C@H](OC)[C@@H](O)[C@H](C)O4)[C@H](C)O3)[C@@H](C)/C=C/C=C3\CO[C@@H]4[C@H](O)C(C)=C[C@@H](C(=O)O1)[C@]34O)O2 [abamectin]
- Solubility, Acetone ([1]; acetone): Acetone: 72,000 mg/L
- Solubility, Ethyl Acetate ([1]; ethyl acetate): Ethyl Acetate: 160,000 mg/L
- Solubility, Water [1]: Water: 1.21 mg/L
- Octanol-Water Coefficient Log P: Log P: 4.4
- Aqueous Photolysis DT50 ([2]; pH 7): DT50: 1.5 d at pH 7

Compound: milbemycin
- Solubility, Methanol [1]: Methanol: 251,000 mg/L
- Solubility, n-heptane ([1]; n-heptane): n-heptane: 5,060 mg/L
- Solubility, Water [1]: Water 3.6 mg/L
- Octanol-Water Coefficient Log P: Log P: 6.8
- Aqueous Photolysis DT50 ([2]; pH 5): DT50: 3 d at pH 5 (aqueous

Compound: emamectin
- Solubility, Methanol [1]: Methanol: 2700 g/L
- Solubility, Water [1]: Water: 24 mg/L
- Octanol-Water Coefficient Log P: Log P: 5.0
- Aqueous Photolysis DT50 ([2]; pH 7): DT50: 32 d at pH 7
